We go through 4 molecules from paper PMC9796023, “In vivo and in vitro characterization of GL0034, a novel long‐acting glucagon‐like peptide‐1 receptor agonist” (Diabetes, Obesity & Metabolism, 2022).

Where no end group is shown, it is not given here. [ ]: non-standard residue; d: D form. Aib = CC(C)(N)C(=O)O

Series [1] has as its system HFHS diet-fed C57BL6/J mice. As to the kind of experiment: Study in high-fat, high-sucrose diet-fed mice. It is filed as in vivo, mouse. The settings on record: end of study, n = 3. The protocol: Male C57BL6/J mice were purchased from Charles River (UK). The mice were housed in a pathogen‐free facility with a 12‐hour light/12‐hour dark cycle. From the age of 8 weeks they were put on a 58 kcal % fat and sucrose diet (D12331; Research Diets Inc., New Brunswick, New Jersey) for 8 weeks to induce obesity and glucose intolerance. […] Body weight was monitored at regular intervals. For glucose tolerance testing, mice were fasted overnight (total 16 hours) and given free access to water. At 9:00 AM, glucose (3 g/kg body weight) was administered via intraperitoneal injection or oral gavage. Blood was sampled from the tail vein at 0, 5, 15, 30, 60 and 90 minutes after glucose administration. Blood glucose was measured with an automatic glucometer (Accuchek; Roche, Burgess Hill, UK). To quantify circulating insulin, 10 μL blood was collected from the tail vein into heparin‐coated tubes (Sarstedt, Beaumont Leys, UK). Plasma was separated by sedimentation at 10 000g for 10 minutes at 4°C. Plasma insulin levels were measured in 5‐μL aliquots by ELISA kits from Crystal Chem (Elk Grove Village, Illinois). At the end of the study, pancreata were isolated and processed for immunohistochemistry.

The target of series [2] is human serum albumin (human) (UniProt P02768).
The target in series [3] is T1, GLP-1R (PathHunter CHO-K1-βarr2-EA-GLP-1R cells) (Homo sapiens, UniProt P43220).
T1 construct: host or cells: CHO-K1 (PathHunter, co-expressing β-arrestin-2-EA)
T1 sequence (P43220 24-463): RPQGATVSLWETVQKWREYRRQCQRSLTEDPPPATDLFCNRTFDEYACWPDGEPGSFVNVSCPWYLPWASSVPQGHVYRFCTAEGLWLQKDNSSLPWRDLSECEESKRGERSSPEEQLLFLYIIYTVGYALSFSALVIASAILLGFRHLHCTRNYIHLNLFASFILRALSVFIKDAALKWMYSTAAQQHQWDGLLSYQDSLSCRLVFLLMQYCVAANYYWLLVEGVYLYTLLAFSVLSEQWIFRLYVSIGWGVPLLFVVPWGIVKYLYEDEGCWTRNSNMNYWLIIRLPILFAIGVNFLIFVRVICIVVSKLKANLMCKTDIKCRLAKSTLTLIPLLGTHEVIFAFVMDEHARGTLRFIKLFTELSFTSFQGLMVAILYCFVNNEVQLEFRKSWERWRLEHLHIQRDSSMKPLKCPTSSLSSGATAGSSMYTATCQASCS
Put plainly: PathHunter β-arrestin-2 recruitment assay. It is filed as cell-based. The protocol: PathHunter CHO‐K1‐βarr2‐EA‐GLP‐1R cells were stimulated with agonist for 30 minutes at 37°C in Ham's F12 medium without FBS. At the end of the incubation period, cells were lysed by addition of PathHunter detection reagents and luminescent signal was subsequently recorded from each well.

In series [4] the target is T2, human SNAP-GLP-1R (HEK293-SNAP-GLP-1R cells) (Homo sapiens, UniProt P43220).
T2 construct: expressed in transfected cells
T2 sequence (P43220 24-463): as above
As to the kind of experiment: Time-resolved FRET kinetic competition binding vs exendin(9-39)-FITC. The protocol: (§1) For in vitro data, the average of within‐assay replicates was counted as one biological replicate. For kinetic binding assays, rate constants for association and dissociation of the unlabelled ligands were calculated using the “kinetics of competition binding” algorithm in PRISM 8 (GraphPad Software), using values for exendin(9‐39)‐FITC determined in the same experiment. Functional concentration response data were fitted using three‐parameter logistic fitting (PRISM 8), with constraints applied where appropriate. Pharmacokinetic analysis was performed using Phoenix® Win‐Nonlin® (Version 8.0). Statistical comparisons were performed using Student's t‐test or one‐way ANOVA, as appropriate. Paired or matched analyses were performed where permitted by the experimental design. Specific post hoc tests are indicated in the legends. Statistical significance was assigned where P < 0.05. Data are represented as mean ± standard error of the mean (SEM) throughout, with individual replicates indicated where possible.

Series [5] has as its target T2, human SNAP-GLP-1R (HEK293-SNAP-GLP-1R cells). As to the kind of experiment: cAMP assay (HTRF) in HEK293-SNAP-GLP-1R cells. The format is cell-based. The protocol: HEK293‐SNAP‐GLP‐1R cells were stimulated with agonist for 30 minutes at 37°C, either in serum‐free media (SFM) or SFM supplemented with 2% human serum albumin (HSA; Sigma Aldrich, Poole, UK). cAMP was determined at the end of the incubation period by homogenous time‐resolved fluorescence (HTRF; cAMP Dynamic 2 kit; Cisbio) using a Spectramax i3x plate reader (Molecular Devices, Wokingham, UK).
For in vitro data, the average of within‐assay replicates was counted as one biological replicate. For kinetic binding assays, rate constants for association and dissociation of the unlabelled ligands were calculated using the “kinetics of competition binding” algorithm in PRISM 8 (GraphPad Software), using values for exendin(9‐39)‐FITC determined in the same experiment. Functional concentration response data were fitted using three‐parameter logistic fitting (PRISM 8), with constraints applied where appropriate. Pharmacokinetic analysis was performed using Phoenix® Win‐Nonlin® (Version 8.0). Statistical comparisons were performed using Student's t‐test or one‐way ANOVA, as appropriate. Paired or matched analyses were performed where permitted by the experimental design. Specific post hoc tests are indicated in the legends. Statistical significance was assigned where P < 0.05. […]

Series [6] in a line: Plasma pharmacokinetic study in CD-1 mice. The format is in vivo, mouse. The settings on record: male CD-1 mice, single s.c. 1 mg/kg, LC-MS/MS, n = 5 per timepoint. On the procedure:
A plasma pharmacokinetic study of GL0034 was performed in male CD‐1 Mice (6‐9 weeks of age; 30‐50 g body weight) procured from the Laboratory Animal Resources Department of Sun Pharma Advanced Research Company Ltd (www.sparc.life, a subsidiary of Sun Pharma Industries Ltd.). For full details see Supplementary Methods.
as §1
Animals (n=45) were procured from Laboratory Animal Resources Dept. of Sun Pharma Advanced Research Company Ltd. (www.sparc.life, a subsidiary of Sun Pharma Industries Ltd.). Animals were acclimatized for one day. On day 0, each animal was weighed. Animals were divided into 9 groups, each group containing 5 male animals (one group representing one time-point). All the animals were injected subcutaneously at a dose of 1 mg/kg (dose volume: 10 ml/kg) using 26½ gauge needle attached to an appropriately graduated syringe. At 1, 2, 4, 8, 12, 24, 48, 72 and 96 hours after injection, ~500 µL of blood was collected from mice by retro-orbital plexus puncture using capillary micro-centrifuge tubes containing anticoagulant (15 µL of 10% K2EDTA per tube). Plasma was separated from the collected blood samples by centrifugation at ~3300 rpm (1985 g) for 10 min at 4°C ± 2°C. GL0034 concentrations were estimated using liquid chromatography with tandem mass spectrometry (LCMS-MS). Lower limit of quantitation (LLOQ) for GL0034 was 50 ng/mL.

The target in series [7] is human SNAP-GLP-1R (glucagon-like peptide-1 receptor) on HEK293 cells (human, UniProt P43220 24-463, SNAP tag labelled with SNAP-Lumi4-Tb). As to the kind of experiment: cell-based or functional assay.
human SNAP-GLP-1R (glucagon-like peptide-1 receptor) on HEK293 cells, sequence (P43220 24-463): as above

Take `CC[C@H](C)[C@H](NC(=O)[C@H](Cc1ccccc1)NC(=O)[C@H](CCC(=O)O)NC(=O)[C@H](CCCCNC(=O)COCCOCCNC(=O)COCCOCCNC(=O)CC[C@H](NC(=O)CCCCCCCCCCCCCCCCC(=O)O)C(=O)O)NC(=O)[C@H](C)NC(=O)[C@H](C)NC(=O)[C@H](CCC(N)=O)NC(=O)CNC(=O)[C@H](CCC(=O)O)NC(=O)[C@H](CC(C)C)NC(=O)[C@H](Cc1ccc(O)cc1)NC(=O)[C@H](CO)NC(=O)[C@H](CO)NC(=O)[C@@H](NC(=O)[C@H](CC(=O)O)NC(=O)[C@H](CO)NC(=O)[C@@H](NC(=O)[C@H](Cc1ccccc1)NC(=O)[C@@H](NC(=O)CNC(=O)[C@H](CCC(=O)O)NC(=O)C(C)(C)NC(=O)[C@@H](N)Cc1cnc[nH]1)[C@@H](C)O)[C@@H](C)O)C(C)C)C(=O)N[C@@H](C)C(=O)N[C@@H](Cc1c[nH]c2ccccc12)C(=O)N[C@@H](CC(C)C)C(=O)N[C@H](C(=O)N[C@@H](CCCNC(=N)N)C(=O)NCC(=O)N[C@@H](CCCNC(=N)N)C(=O)NCC(=O)O)C(C)C` [Semaglutide, reference compound]: in series [1], the Plasma amylase levels entry was “no difference”.
Regarding GL0034 (peptide), the ∆pEC50 of GLP-1R cAMP signalling potency with and without 2% HSA (HEK293-SNAP-GLP-1R cells) in series [2] came out at 2.1.
A word on the Emax: it is the maximal effect, on the per cent scale that the assay sets. For orientation: Kd means the constant that tells how readily two partners part at equilibrium. Usually koff stands for the rate constant with which the complex falls apart. One may read the Cmax as the highest concentration seen after dosing. The term Tmax denotes the time from dosing to the highest level. Take `CC[C@H](C)[C@H](NC(=O)[C@H](Cc1ccccc1)NC(=O)[C@H](CCC(=O)O)NC(=O)[C@H](CCCCNC(=O)COCCOCCNC(=O)C(C)(C)NC(=O)CC[C@H](NC(=O)CCCCCCCCCCCCCCCCC(=O)O)C(=O)O)NC(=O)[C@H](C)NC(=O)[C@H](C)NC(=O)[C@H](CCC(N)=O)NC(=O)CNC(=O)[C@H](CCC(=O)O)NC(=O)[C@H](CC(C)C)NC(=O)[C@H](Cc1ccc(O)cc1)NC(=O)[C@H](CO)NC(=O)[C@H](CO)NC(=O)[C@@H](NC(=O)[C@H](CC(=O)O)NC(=O)[C@H](CO)NC(=O)[C@@H](NC(=O)[C@H](Cc1ccccc1)NC(=O)[C@@H](NC(=O)CNC(=O)[C@H](CCC(=O)O)NC(=O)C(C)(C)NC(=O)[C@@H](N)Cc1c[nH]cn1)[C@@H](C)O)[C@@H](C)O)C(C)C)C(=O)N[C@@H](C)C(=O)N[C@@H](Cc1c[nH]c2ccccc12)C(=O)N[C@@H](CC(C)C)C(=O)N[C@H](C(=O)N[C@@H](CCCNC(=N)N)C(=O)NCC(=O)N[C@@H](CCCNC(=N)N)C(=O)NCC(=O)N[C@@H](CC(C)C)C(=O)O)C(C)C` [GL0034]: the Emax in series [3] (30 min, 37°C, Ham's F12 without FBS, estimate ± SEM, n = 5) is 102 ± 1%; in series [5] (30 min, 37°C, estimate ± SEM, n = 5), 97 ± 2%. The EC50 in series [3] (read-out: βarr2 LogEC50 (converted)) was 0.0794 µM; in series [5] (read-out: cAMP LogEC50 (converted)) it was 0.000631 µM. The molecule further showed a Kd in series [4] of 0.0251 µM. The koff in series [4] (HEK293-SNAP-GLP-1R, 37°C, competition with 10 nM exendin(9-39)-FITC, estimate ± SEM, n = 4) is 0.00367 s⁻¹. Also, the Plasma amylase levels result in series [1] was “no difference”. In series [6], this molecule returned a Kel of 0.0906 h⁻¹. The same molecule returned a Cmax in series [6] (mouse, sc) of 0.921 µM. Moreover, the Tmax in series [6] (mouse, sc) is 4 h. Moreover, the half-life in series [6] (mouse, sc, read-out: t1/2 (plasma half-life) (converted)) is 7.65 h.

B1: GL0034 (peptide)
chain: H[Aib]EGTFTSDVSSYLEGQAAKEFIAWLVRGRGL
modifications: not fully specified (residue 20); also: K20 linker includes Aib, structure not given here
In the case of B1, in series [7], the “GLP-1R endocytosis (high content imaging), HEK293-SNAP-GLP-1R cells, LogEC50 (M)” value is -9.2 M (log) and the “cAMP production, HEK293-SNAP-GLP-1R cells, 30 minutes, LogEC50 (M)” value is -9.2 M (log).
